Assay results reported in PubChem BioAssay (NCI).
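Exposure lasted 48 hours, with cells grown in 96-well plates and compounds tested at five concentrations. GI50: concentration for 50% inhibition of growth. TGI denotes the concentration required for complete inhibition of growth.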

Experiments:
Assay in all cases: DTP human tumour cell line panel, 48 h; in the data active = GI50 below about 0.43 µM; inactive = the rest
SR leukemia = system: SR leukemia
OVCAR-8 ovarian = system: OVCAR-8 ovarian
SNB-75 CNS = system: SNB-75 CNS
NCI-H460 lung = system: NCI-H460 lung
EKVX NSCLC = system: EKVX NSCLC
SNB-19 CNS = system: SNB-19 CNS
SF-539 CNS = system: SF-539 CNS
HL-60(TB) leukemia = system: HL-60(TB) leukemia
SK-MEL-2 melanoma = system: SK-MEL-2 melanoma
CAKI-1 renal = system: CAKI-1 renal

CCCCCCCCCCCCOC(=S)NCCCC
95.1 µM: TGI (SNB-75 CNS)
42.7 µM: TGI (SR leukemia)
43.1 µM: TGI (HL-60(TB) leukemia)
44.2 µM: TGI (SK-MEL-2 melanoma)
40.2 µM: TGI (OVCAR-8 ovarian)
47.8 µM: TGI (EKVX NSCLC)
53.2 µM: TGI (NCI-H460 lung)
> 100 µM: TGI (SNB-19 CNS)
48.5 µM: TGI (SF-539 CNS)

Cc1ccc2c(ccc3c[n+]4c5ccccc5ccc4n32)c1
16.7 µM: TGI (SR leukemia)
25.4 µM: TGI (EKVX NSCLC)
inactive: GI50 (SR leukemia) 1.47 µM | GI50 (OVCAR-8 ovarian) 0.688 µM | GI50 (SNB-75 CNS) 1.18 µM | GI50 (NCI-H460 lung) 1.2 µM | GI50 (EKVX NSCLC) 0.484 µM | GI50 (SNB-19 CNS) 0.494 µM | GI50 (HL-60(TB) leukemia) 2.5 µM | GI50 (CAKI-1 renal) 8.25 µM | GI50 (SK-MEL-2 melanoma) 1.64 µM
> 100 µM: TGI (CAKI-1 renal)
3.9 µM: TGI (SK-MEL-2 melanoma)
5.41 µM: TGI (NCI-H460 lung)
8.05 µM: TGI (SNB-75 CNS)
3.38 µM: TGI (SNB-19 CNS)
10.2 µM: TGI (HL-60(TB) leukemia)
9.72 µM: TGI (OVCAR-8 ovarian)

O=C(Cn1ccc(=O)[nH]c1=O)Nc1ccc(C(=O)O)c(O)c1
> 100 µM: TGI (SR leukemia) | TGI (OVCAR-8 ovarian) | TGI (SNB-75 CNS) | TGI (NCI-H460 lung) | TGI (EKVX NSCLC) | TGI (SNB-19 CNS) | TGI (HL-60(TB) leukemia) | TGI (CAKI-1 renal) | TGI (SK-MEL-2 melanoma)

COc1c2c(c3c(c1CCC(=O)O)OC(C)(C)C=C3)OC(C)(C)C=C2
> 100 µM: TGI (SR leukemia) | TGI (OVCAR-8 ovarian) | TGI (SNB-75 CNS) | TGI (EKVX NSCLC) | TGI (SNB-19 CNS) | TGI (HL-60(TB) leukemia) | TGI (CAKI-1 renal) | TGI (SK-MEL-2 melanoma)

COC(=O)/C=C/C=C(c1ccccc1)c1ccccc1
26.1 µM: TGI (HL-60(TB) leukemia)
15.2 µM: TGI (NCI-H460 lung)
10.4 µM: TGI (CAKI-1 renal)
43.3 µM: TGI (SF-539 CNS)
53.1 µM: TGI (SNB-75 CNS)
32.8 µM: TGI (EKVX NSCLC)
> 100 µM: TGI (SR leukemia) | TGI (OVCAR-8 ovarian) | TGI (SNB-19 CNS)
inactive: GI50 (SR leukemia) 4.51 µM | GI50 (OVCAR-8 ovarian) 15 µM | GI50 (SNB-75 CNS) 2.72 µM | GI50 (NCI-H460 lung) 3.67 µM | GI50 (EKVX NSCLC) 4.06 µM | GI50 (SNB-19 CNS) 9.31 µM | GI50 (SF-539 CNS) 5.17 µM | GI50 (HL-60(TB) leukemia) 3.26 µM | GI50 (CAKI-1 renal) 3.05 µM

Nc1ccn(Cc2ccc(C34CC5CC(CC(C5)C3)C4)c(O)c2)c(=O)n1
> 100 µM: TGI (SR leukemia) | TGI (NCI-H460 lung) | TGI (EKVX NSCLC) | TGI (SNB-19 CNS) | TGI (SF-539 CNS) | TGI (HL-60(TB) leukemia) | TGI (CAKI-1 renal) | TGI (SK-MEL-2 melanoma)
inactive: GI50 (SR leukemia) > 100 µM | GI50 (SNB-75 CNS) 24 µM | GI50 (NCI-H460 lung) > 100 µM | GI50 (EKVX NSCLC) 93 µM | GI50 (SNB-19 CNS) 89.1 µM | GI50 (SF-539 CNS) 42 µM | GI50 (HL-60(TB) leukemia) 62.9 µM | GI50 (CAKI-1 renal) > 100 µM | GI50 (SK-MEL-2 melanoma) 76.1 µM
84 µM: TGI (SNB-75 CNS)

Cc1sc(C(=O)Nc2cc(C(=O)NCCCN(C)C)n(C)c2)cc1NC(=O)CCCN1C(=O)c2cccc3cccc(c23)C1=O
inactive: GI50 (SR leukemia) > 100 µM | GI50 (SNB-75 CNS) > 100 µM | GI50 (NCI-H460 lung) > 100 µM | GI50 (EKVX NSCLC) > 100 µM | GI50 (SNB-19 CNS) > 100 µM | GI50 (SF-539 CNS) > 100 µM | GI50 (HL-60(TB) leukemia) > 100 µM | GI50 (CAKI-1 renal) > 100 µM | GI50 (SK-MEL-2 melanoma) > 100 µM
> 100 µM: TGI (SR leukemia) | TGI (SNB-75 CNS) | TGI (NCI-H460 lung) | TGI (EKVX NSCLC) | TGI (SNB-19 CNS) | TGI (SF-539 CNS) | TGI (HL-60(TB) leukemia) | TGI (CAKI-1 renal) | TGI (SK-MEL-2 melanoma)

COC(=O)CCC1CCc2c(OC)ccc(O)c2C1=O (configuration not stated)
> 100 µM: TGI (SR leukemia) | TGI (OVCAR-8 ovarian) | TGI (SNB-75 CNS) | TGI (NCI-H460 lung) | TGI (EKVX NSCLC) | TGI (SNB-19 CNS) | TGI (SF-539 CNS) | TGI (HL-60(TB) leukemia) | TGI (SK-MEL-2 melanoma)

Nc1cc2cccc[n+]2c2cc(Cl)ccc12
57.9 µM: TGI (OVCAR-8 ovarian)
active: GI50 (SK-MEL-2 melanoma) 0.0664 µM
16.2 µM: TGI (SR leukemia)
55.5 µM: TGI (SNB-19 CNS)
inactive: GI50 (SR leukemia) 2.33 µM | GI50 (OVCAR-8 ovarian) 16.8 µM | GI50 (SNB-75 CNS) 21.5 µM | GI50 (NCI-H460 lung) 18 µM | GI50 (EKVX NSCLC) 34 µM | GI50 (SNB-19 CNS) 9.23 µM | GI50 (SF-539 CNS) 14.6 µM | GI50 (HL-60(TB) leukemia) 16.3 µM
83.2 µM: TGI (SF-539 CNS)
62.7 µM: TGI (SNB-75 CNS)
18.4 µM: TGI (SK-MEL-2 melanoma)
49.6 µM: TGI (NCI-H460 lung)

CN(C)S(=O)(=O)c1ccc(NC(=O)COC(=O)c2ccc(S(=O)(=O)N3CCCCC3)cc2)cc1
> 100 µM: TGI (SR leukemia) | TGI (SNB-75 CNS) | TGI (NCI-H460 lung) | TGI (EKVX NSCLC) | TGI (SNB-19 CNS) | TGI (SF-539 CNS) | TGI (HL-60(TB) leukemia) | TGI (CAKI-1 renal) | TGI (SK-MEL-2 melanoma)
inactive: GI50 (SR leukemia) > 100 µM | GI50 (SNB-75 CNS) > 100 µM | GI50 (NCI-H460 lung) > 100 µM | GI50 (EKVX NSCLC) > 100 µM | GI50 (SNB-19 CNS) > 100 µM | GI50 (SF-539 CNS) > 100 µM | GI50 (HL-60(TB) leukemia) > 100 µM | GI50 (CAKI-1 renal) > 100 µM | GI50 (SK-MEL-2 melanoma) > 100 µM

COc1nc(NC2OCC(OC(C)=O)C(OC(C)=O)C2OC(C)=O)c(N=CC=Nc2c(NC3OCC(OC(C)=O)C(OC(C)=O)C3OC(C)=O)nc(OC)n(C)c2=O)c(=O)n1C (configuration not stated)
> 100 µM: TGI (SR leukemia) | TGI (OVCAR-8 ovarian) | TGI (SNB-75 CNS) | TGI (NCI-H460 lung) | TGI (EKVX NSCLC) | TGI (SNB-19 CNS) | TGI (SF-539 CNS) | TGI (HL-60(TB) leukemia) | TGI (SK-MEL-2 melanoma)

COC(=O)[C@@H](C)C[C@H](Cc1ccccc1)NC(=O)c1nc([C@@H](C[C@H](C(C)C)N(C)C(=O)[C@@H](NC(=O)[C@H]2CCCCN2C)C(C)C)OC(C)=O)sc1C
active: GI50 (SR leukemia) < 0.00167 µM | GI50 (OVCAR-8 ovarian) < 0.00167 µM | GI50 (SNB-75 CNS) < 0.00167 µM | GI50 (NCI-H460 lung) < 0.00167 µM | GI50 (EKVX NSCLC) 0.00666 µM | GI50 (SNB-19 CNS) < 0.00167 µM | GI50 (SF-539 CNS) 0.00239 µM | GI50 (HL-60(TB) leukemia) < 0.00167 µM | GI50 (SK-MEL-2 melanoma) < 0.00167 µM
< 0.00167 µM: TGI (HL-60(TB) leukemia)
> 7.57 µM: TGI (SNB-75 CNS)
0.00822 µM: TGI (SF-539 CNS)
> 16.7 µM: TGI (SR leukemia) | TGI (OVCAR-8 ovarian) | TGI (NCI-H460 lung) | TGI (EKVX NSCLC) | TGI (SNB-19 CNS) | TGI (SK-MEL-2 melanoma)

O=c1c2c([nH]c3cc4c(cc13)OCO4)-c1ccccc1CC2
> 100 µM: TGI (SR leukemia) | TGI (OVCAR-8 ovarian) | TGI (SNB-75 CNS) | TGI (NCI-H460 lung) | TGI (EKVX NSCLC) | TGI (SNB-19 CNS) | TGI (SF-539 CNS) | TGI (HL-60(TB) leukemia) | TGI (SK-MEL-2 melanoma)
